The source of these data is patent publication US20040086553A1, “Foods and beverages for whitening and orally administered whitening agents” (The Nisshin OilliO, Ltd., priority 2000, published 2004).

Read-outs that look alike come from different tables or passages of the source.

The test system of one experiment is B-16 melanoma cells. In words: Evaluation of melanin production-inhibitory function (degree of whiteness of cultured cells). As to Evaluation of Melanin Production-Inhibition (degree of whiteness of cells): key: ++: The degree of whiteness is higher than that observed for the positive control; +: The degree of whiteness is almost identical to that of the positive control; ±: The degree of whiteness is not higher than that observed for the positive control, but higher than that observed for control; −: The degree of whiteness is almost identical to that observed for the control. In kind it is cell-based. Particulars: for melanin production-inhibitory function relative to that observed for the positive control/standard: compared with 450 ppm of vitamin C-magnesium phosphate. An excerpt: The melanin production-inhibitory function of the 5-membered ring-containing triterpenes incorporated into the foods or beverages and orally administered whitening agents of the present invention can be determined by a test method, which makes use of cultured melanocytes. The term “melanocyte(s)” used herein means cells having an ability of producing melanin and when cultivating these cells in the usual manner, the cells are blackened due to the accumulation of melanin pigment thus produced. Contrary to this, if a substance having such a melanin production-inhibitory function is incorporated into this cultivation system, the melanin production is suppressed and the skin is relatively whitened. The melanin production-inhibitory function can likewise be evaluated on the basis of this degree of relative whitening.
A culture medium (2 mL/well) was dispensed to a 6-well plate, a predetermined amount of B-16 melanoma cells was inoculated into the culture medium in each well and the cells were cultured at 37° C. and 5% CO2 by allowing the culture medium to stand. On the next day, a solution of test sample (each 5-membered ring-containing triterpene to be evaluated) having a predetermined concentration was added to and mixed with the culture medium and the cultivation was continued. On the 5th day from the initiation of the cultivation, the culture medium was exchanged and the test sample solution was again added to each well. On the next day, the culture medium was removed from each well to thus recover the cells, followed by washing the cells with PBS (phosphate-buffered physiological saline) and evaluation of the desired function based on the degree of whiteness of the cells. In this connection, the melanin production-inhibitory effect was evaluated by comparing the resulting degree of whiteness with that observed when 450 ppm of vitamin C-magnesium phosphate having a known effect was added instead of the test sample solution (positive control) and that observed when any test sample was not added (control) according to the following criteria.
The evaluation criteria for the degree of whiteness of cells are as follows: […]

In experiment [1] the test system is deposition of melanin pigment on the skin induced by the UV light irradiation. In words: Animal test for the confirmation of whitening effect (UV-induced skin pigmentation, test feed). Particulars: 4 weeks; for Evaluation Results CI: number of 7 animals ranked Conspicuous Imp.; for Evaluation Results MI: number of 7 animals ranked Medium Imp.; for Evaluation Results NC: number of 7 animals ranked No Change; for Evaluation Results SI: number of 7 animals ranked Slight Imp. In kind it is in vivo, Brown guinea pigs. An excerpt: More specifically, the whitening effect can be evaluated by removing a half of the hair on the back of each brown guinea pig, keeping these animals over 2 weeks while irradiating the hair-removed area with a UV lamp, dividing these guinea pigs into groups in such a manner that there is not any difference in the degree of the melanin pigmentation induced by the UN light irradiation, allowing the animals in each group to freely take a test food comprising a feed having a low vitamin C content to which a variety of triterpenes have been added and keeping these animals over additional 4 weeks to evaluate the degree of skin pigmentation while comparing the same with those observed for a control group and for a positive control group.
Brown guinea pigs (5-week-old male animals) were preliminarily kept for one week using a commercially available feed (CG-7 available from Nippon Kurea Company), a half of the hair on the back was removed and the hair-removed portion on the back was irradiated with light rays emitted from a UV lamp of 1.2 mW for 5 minutes on the 1st day and then with light rays emitted from a UV lamp of 1.0 mW for 5 minutes on the 2nd and 3rd days. Subsequently, these animals were kept over 2 weeks using a feed having a low vitamin C content (200.0 mg/kg feed), these guinea pigs were divided into 12 groups (comprising 7 animals each) in such a manner that there was not observed any difference in the degree of deposition of melanin pigment on the skin induced by the UV light irradiation between groups and then the animals were allowed to freely ingest each test feed comprising the feed having a low vitamin C content to which each triterpene had been added in an amount specified in the following Table 2. In this respect, however, the vitamin C-deficient feed per se was supplied to the control group and a vitamin C-supplemented feed was supplied to the positive control group. After 4 weeks from the supply of the test feed, the degree of the pigmentation of the skin was evaluated according to the following criteria.

Where [2] appears, read: Concentration 2 ppm, rank vs 450 ppm vitamin C-magnesium phosphate.
[3] abbreviates: Concentration 4 ppm, rank vs 450 ppm vitamin C-magnesium phosphate.
Where [4] appears, read: Concentration 6 ppm, rank vs 450 ppm vitamin C-magnesium phosphate.
The mark [5] stands for this setting: Concentration 8 ppm, rank vs 450 ppm vitamin C-magnesium phosphate.
Where [6] appears, read: Concentration 10 ppm, rank vs 450 ppm vitamin C-magnesium phosphate.
[7] abbreviates: Concentration 15 ppm, rank vs 450 ppm vitamin C-magnesium phosphate.
Where [8] appears, read: Concentration 25 ppm, rank vs 450 ppm vitamin C-magnesium phosphate.
The mark [9] stands for this setting: Concentration 50 ppm, rank vs 450 ppm vitamin C-magnesium phosphate.
The mark [10] stands for this setting: 500.0 mg/kg feed, free ingestion.
The mark [11] stands for this setting: positive control group, 2500.0 mg/kg feed.

Turning to “2,3-O-di-Stearoyl-Maslinic Acid Ethyl Ester [Compound of Synthetic Example 4]”, the “Evaluation of Melanin Production-Inhibition (degree of whiteness of cells)” value in the experiment with B-16 melanoma cells (setting [2]) was “±”; with B-16 melanoma cells (setting [3]), “±”; in the experiment on B-16 melanoma cells (setting [4]), “+”; in the experiment on B-16 melanoma cells (setting [5]), “++”; in the experiment with B-16 melanoma cells (setting [6]), “++”; in the experiment with B-16 melanoma cells (setting [7]), “++”. The “melanin production-inhibitory function relative to that observed for the positive control/standard” value in the experiment on B-16 melanoma cells was “about 75 times”.
As for “2,3-O-di-Triethylsilyl-Maslinic Acid Triethylsilyl Ester [Compound of Synthetic Example 3]”, the “Evaluation of Melanin Production-Inhibition (degree of whiteness of cells)” value in the experiment on B-16 melanoma cells (setting [2]) is given as “−”; in the experiment on B-16 melanoma cells (setting [4]), “±”; with B-16 melanoma cells (setting [6]), “+”; in the experiment with B-16 melanoma cells (setting [8]), “+”; in the experiment with B-16 melanoma cells (setting [9]) it was “+”. Also, the “melanin production-inhibitory function relative to that observed for the positive control/standard” value with B-16 melanoma cells was “about 40 times”.
Turning to `C=C(C)[C@@H]1CC[C@]2(CO)CC[C@]3(C)[C@H](CC[C@@H]4[C@@]5(C)CC[C@H](O)C(C)(C)[C@@H]5CC[C@]43C)[C@@H]12` [Betulin], in the experiment with B-16 melanoma cells (setting [2]), the “Evaluation of Melanin Production-Inhibition (degree of whiteness of cells)” value is recorded as “−”. Further, the “Evaluation of Melanin Production-Inhibition (degree of whiteness of cells)” value in the experiment on B-16 melanoma cells (setting [4]) was “±”. The “Evaluation of Melanin Production-Inhibition (degree of whiteness of cells)” value in the experiment on B-16 melanoma cells (setting [6]) is on record as “±”. The “melanin production-inhibitory function relative to that observed for the positive control/standard” value in the experiment with B-16 melanoma cells is given as “about 40 times”. Also, in experiment [1] (setting [10]), the “Evaluation Results CI” value worked out at 1, the “Evaluation Results MI” value was 3, the “Evaluation Results NC” value was determined as 1 and the “Evaluation Results SI” value turned out to be 2.
For the compound `CC(=O)OCC12CCC(C)(C)CC1C1=CCC3C4(C)CCC(OC(C)=O)C(C)(C)C4CCC3(C)C1(C)CC2` (stereo not shown) [Compound of Synthetic Example 5, 3,28-O-di-Acetyl-Erythrodiol], the “Evaluation of Melanin Production-Inhibition (degree of whiteness of cells)” value in the experiment on B-16 melanoma cells (setting [2]) is on record as “−”; in the experiment with B-16 melanoma cells (setting [4]), “±”; with B-16 melanoma cells (setting [6]), “±”; in the experiment on B-16 melanoma cells (setting [8]), “+”; in the experiment on B-16 melanoma cells (setting [9]), “+”. For the same compound, the “melanin production-inhibitory function relative to that observed for the positive control/standard” value with B-16 melanoma cells is given as “about 20 times”.
For `CCOC(=O)[C@]12CC[C@@H](C)[C@H](C)[C@H]1C1=CC[C@@H]3[C@@]4(C)CC[C@H](O)C(C)(C)[C@@H]4CC[C@@]3(C)[C@]1(C)CC2` [Compound of Synthetic Example 6, Ursolic Acid Ethyl Ester], the “Evaluation of Melanin Production-Inhibition (degree of whiteness of cells)” value in the experiment on B-16 melanoma cells (setting [2]) is on record as “±”; in the experiment with B-16 melanoma cells (setting [3]), “+”; with B-16 melanoma cells (setting [4]), “++”; in the experiment with B-16 melanoma cells (setting [5]) it was “++”; in the experiment on B-16 melanoma cells (setting [6]), “++”. In addition, the “melanin production-inhibitory function relative to that observed for the positive control/standard” value in the experiment on B-16 melanoma cells is given as “about 110 times”.
For the compound `CC(=O)OC[C@]12CC[C@@H](C)[C@H](C)[C@H]1C1=CC[C@@H]3[C@@]4(C)CC[C@H](OC(C)=O)C(C)(C)[C@@H]4CC[C@@]3(C)[C@]1(C)CC2` [Compound of Synthetic Example 7, 3,28-O-di-Acetyl-Uvaol], the “Evaluation of Melanin Production-Inhibition (degree of whiteness of cells)” value in the experiment with B-16 melanoma cells (setting [2]) is “−”; with B-16 melanoma cells (setting [4]) it was “−”; with B-16 melanoma cells (setting [6]), “±”; with B-16 melanoma cells (setting [8]), “+”; with B-16 melanoma cells (setting [9]), “+”. Besides, the “melanin production-inhibitory function relative to that observed for the positive control/standard” value in the experiment with B-16 melanoma cells was “about 20 times”.
Consider `C=C(C)[C@@H]1CC[C@]2(C(=O)OCC)CC[C@]3(C)[C@H](CC[C@@H]4[C@@]5(C)CC[C@H](O)C(C)(C)[C@@H]5CC[C@]43C)[C@@H]12` [Compound of Synthetic Example 8, Betulinic Acid Ethyl Ester], for which the “Evaluation of Melanin Production-Inhibition (degree of whiteness of cells)” value with B-16 melanoma cells (setting [2]) was “−”; with B-16 melanoma cells (setting [4]) it was “±”; with B-16 melanoma cells (setting [6]), “±”; in the experiment with B-16 melanoma cells (setting [8]) it was “+”; in the experiment on B-16 melanoma cells (setting [9]), “+”. The “melanin production-inhibitory function relative to that observed for the positive control/standard” value in the experiment on B-16 melanoma cells is recorded as “about 20 times”.
Take `C=C(C)[C@@H]1CC[C@]2(COC(C)=O)CC[C@]3(C)[C@H](CC[C@@H]4[C@@]5(C)CC[C@H](OC(C)=O)C(C)(C)[C@@H]5CC[C@]43C)[C@@H]12` [Compound of Synthetic Example 9, 3,28-O-di-Acetyl-Betulin]: the “Evaluation of Melanin Production-Inhibition (degree of whiteness of cells)” value in the experiment with B-16 melanoma cells (setting [2]) was “−”; in the experiment with B-16 melanoma cells (setting [4]) it was “−”; with B-16 melanoma cells (setting [6]), “±”; in the experiment on B-16 melanoma cells (setting [8]) it was “±”; in the experiment with B-16 melanoma cells (setting [9]), “+”. The “melanin production-inhibitory function relative to that observed for the positive control/standard” value in the experiment with B-16 melanoma cells is on record as “about 10 times”.
`O=c1cc(CO)occ1O` [Kojic acid, reference compound]: the “Evaluation of Melanin Production-Inhibition (degree of whiteness of cells)” value in the experiment on B-16 melanoma cells (setting [6]) was “−”; in the experiment with B-16 melanoma cells (setting [7]) it was “−”; in the experiment with B-16 melanoma cells (setting [8]) it was “−”; with B-16 melanoma cells (setting [9]), “±”; with B-16 melanoma cells (Concentration 100 ppm, rank vs 450 ppm vitamin C-magnesium phosphate), “±”; in the experiment on B-16 melanoma cells (Concentration 200 ppm, rank vs 450 ppm vitamin C-magnesium phosphate), “+”. Moreover, the “Evaluation of Melanin Production-Inhibition (degree of whiteness of cells)” value in the experiment with B-16 melanoma cells (Concentration 300 ppm, rank vs 450 ppm vitamin C-magnesium phosphate) was “++”; in the experiment on B-16 melanoma cells (Concentration 450 ppm, rank vs 450 ppm vitamin C-magnesium phosphate), “++”.
Consider `O=C1O[C@H]([C@@H](O)CO)C(O)=C1O` [L-Ascorbic acid, reference compound], for which, in experiment [1] (setting [11]), the “Evaluation Results CI” value turned out to be 0, the “Evaluation Results MI” value amounted to 1, the “Evaluation Results NC” value is given as 2 and the “Evaluation Results SI” value is given as 4.
As to `CC1(C)CC[C@]2(C(=O)O)CC[C@]3(C)C(=CC[C@@H]4[C@@]5(C)C[C@@H](O)[C@H](O)C(C)(C)[C@@H]5CC[C@]43C)[C@@H]2C1` [Purified maslinic acid 3, maslinic acid], in the experiment with B-16 melanoma cells, the “Evaluation of Melanin Production-Inhibition (degree of whiteness of cells)” value is “± and + and ++”.
